Measured values as given in US8383094B2, “Hepatitis C virus inhibitors” (Bristol-Myers Squibb Company, priority 2008, dated 2013).
Read-outs that look alike come from different tables or passages of the source.

Test system: HCV 1b genotype
Assay: HCV Replicon assay (HCV-neo replicon cells, wild-type)
Assay type: cell-based
Protocol: An HCV Replicon assay was utilized in the present disclosure, and was prepared, conducted and validated as described in commonly owned PCT/US2006/022197 and in O′Boyle et. al. Antimicrob Agents Chemother, 2005 April; 49(4):1346-53. Assay methods incorporating luciferase reporters have also been used as described (Apath.com).
HCV-neo replicon cells and replicon cells containing mutations in the NS5A region were used to test the currently described family of compounds. The compounds were determined to have more than 10-fold less inhibitory activity on cells containing mutations than wild-type cells. Thus, the compounds of the present disclosure can be effective in inhibiting the function of the HCV NS5A protein and are understood to be as effective in combinations as previously described in application PCT/US2006/022197 and commonly owned WO/04014852. Further, the compounds of the present disclosure can be effective against the HCV 1b genotype. It should also be understood that the compounds of the present disclosure can inhibit multiple genotypes of HCV. […] In one embodiment, compounds of the present disclosure are inhibitory versus 1a, 1b, 2a, 2b, 3a, 4a, and 5a genotypes.

[1] = Hepatitis C virus, HCV 1b genotype replicon, range class A-D, read-out: 1b EC50 (in μM or range)
[2] = Hepatitis C virus, HCV 1b genotype replicon, read-out: 1b EC50 (in μM or range)
[3] = HCV 1b genotype replicon, range class A-D, read-out: 1b EC50 (in μM or range)

O=C(Nc1ccc(C#Cc2ccc(NC(=O)[C@@H]3CCCN3C(=O)[C@H](O)c3ccccc3)cc2)cc1)[C@@H]1CCCN1C(=O)c1nc(Cl)cc2ccccc12 [Example D44, (2S)-1-((3-Chloro-1-isoquinolinyl)carbonyl)-N-(4-((4-((((2S)-1-((2R)-2-hydroxy-2-phenylacetyl)-2-pyrrolidinyl)carbonyl)amino)phenyl)ethynyl)phenyl)-2-pyrrolidinecarboxamide]
EC50 [1]: < 4.57 nM

N#Cc1cc2ccccc2c(C(=O)N2CCC[C@H]2C(=O)Nc2ccc(C#Cc3ccc(NC(=O)[C@@H]4CCCN4C(=O)c4nc(C#N)cc5ccccc45)cc3)cc2)n1 [Example D32, (2S,2′S)-N,N′-(1,2-ethynediyldi-4,1-phenylene)bis(1-((3-cyano-1-isoquinolinyl)carbonyl)-2-pyrrolidinecarboxamide)]
EC50 [1]: 4.57 to 99 nM

O=C(Nc1ccc(C#Cc2ccc(NC(=O)[C@@H]3CCCN3C(=O)c3nccc4ccccc34)cc2)cc1)[C@@H]1CCCN1C(=O)c1nccc2ccccc12 [Example D28, (2S,2′S)-N,N′-(1,2-ethynediyldi-4,1-phenylene)bis(1-(1-isoquinolinylcarbonyl)-2-pyrrolidinecarboxamide)]
EC50 [1]: 100 to 999 nM

CC(=O)N1CCC[C@H]1C(=O)Nc1ccc(C#Cc2ccc(NC(=O)[C@@H]3CCCCN3C(=O)OCc3ccccc3)cc2)cc1 [Example D11, Benzyl (2S)-2-((4-((4-((1-acetyl-L-prolyl)amino)phenyl)ethynyl)phenyl)carbamoyl)-1-piperidinecarboxylate]
EC50 [2]: 590 nM

CC(=O)N[C@H](C)C(=O)N1CCC[C@H]1C(=O)Nc1ccc(C#Cc2ccc(NC(=O)[C@@H]3CCCN3C(=O)[C@@H](C)NC(C)=O)cc2)cc1 [VN14, (2S,2′S)-N,N′-(1,2-ethynediyldi-4,1-phenylene)bis(1-((2R)-2-acetamidopropanoyl)-2-pyrrolidinecarboxamide)]
EC50 [1]: 4.57 to 99 nM

O=C(CC1CC1)Nc1ccc(C#Cc2ccc(NC(=O)[C@@H]3CCCN3C(=O)[C@H]3CCCO3)cc2)cc1 [Example D23, N-(4-((4-((cyclopropylacetyl)amino)phenyl)ethynyl)phenyl)-1-((2R)-tetrahydro-2-furanylcarbonyl)-L-prolinamide]
EC50 [2]: 2600 nM

O=C(Nc1ccc(C#Cc2ccc(NC(=O)C3CC(=O)N(CCc4cccs4)C3)cc2)cc1)C1CC(=O)N(CCc2cccs2)C1 (centres unmarked) [Example D10, N,N′-(1,2-ethynediyldi-4,1-phenylene)bis(5-oxo-1-(2-(2-thienyl)ethyl)-3-pyrrolidinecarboxamide)]
EC50 [1]: 1000 to 10000 nM

CC(=O)N1CCC[C@H]1C(=O)Nc1ccc(C#Cc2ccc(NC(=O)C3CC(=O)N(Cc4ccc(Cl)cc4)C3)cc2)cc1 (stereo partly drawn) [Example D13, 1-Acetyl-N-(4-((4-(((1-(4-chlorobenzyl)-5-oxo-3-pyrrolidinyl)carbonyl)amino)phenyl)ethynyl)phenyl)-L-prolinamide]
EC50 [1]: 1000 to 10000 nM

CN1CCN(C(C(=O)N2CCC[C@H]2C(=O)Nc2ccc(C#Cc3ccc(NC(=O)[C@@H]4CCCN4C(=O)C(c4ccccc4)N4CCN(C)CC4)cc3)cc2)c2ccccc2)CC1 (stereo partly drawn) [VA44, (2S,2′S)-N,N′-(1,2-ethynediyldi-4,1-phenylene)bis(1-((4-methyl-1-piperazinyl)(phenyl)acetyl)-2-pyrrolidinecarboxamide)]
EC50 (Hepatitis C virus, read-out: 1b EC50 (in μM or range), HCV 1b genotype replicon, range class A-D): < 4.57 nM

C[C@@H](C(=O)N1CCC[C@H]1C(=O)Nc1ccc(C#Cc2ccc(NC(=O)[C@@H]3CCCN3C(=O)[C@H](C)c3ccccc3)cc2)cc1)c1ccccc1 [VN9, (2S,2′S)-N,N′-(1,2-ethynediyldi-4,1-phenylene)bis(1-((2R)-2-phenylpropanoyl)-2-pyrrolidinecarboxamide)]
EC50 [1]: < 4.57 nM

O=C(Nc1ccc(C#Cc2ccc(NC(=O)[C@@H]3CCCN3C(=O)[C@H]3CCCO3)cc2)cc1)[C@@H]1CCCN1C(=O)[C@H]1CCCO1 [Example D26, (2S,2′S)-N,N′-(1,2-ethynediyldi-4,1-phenylene)bis(1-((2R)-tetrahydro-2-furanylcarbonyl)-2-pyrrolidinecarboxamide)]
EC50 [1]: 4.57 to 99 nM

CS(=O)(=O)N[C@@H](C(=O)N1CCC[C@H]1C(=O)Nc1ccc(C#Cc2ccc(NC(=O)[C@@H]3CCCN3C(=O)[C@H](NS(C)(=O)=O)c3ccccc3)cc2)cc1)c1ccccc1 [VN27, (2S,2′S)-N,N′-(1,2-ethynediyldi-4,1-phenylene)bis(1-((2R)-2-((methylsulfonyl)amino)-2-phenylacetyl)-2-pyrrolidinecarboxamide)]
EC50 [1]: < 4.57 nM

CCN(C)C(C(=O)N1CCC[C@H]1C(=O)Nc1ccc(C#Cc2ccc(NC(=O)[C@@H]3CCCN3C(=O)C(c3ccccc3)N(C)CC)cc2)cc1)c1ccccc1 (single isomer, unassigned) [VN36]
EC50 [1]: < 4.57 nM

O=C(Nc1ccc(C#Cc2ccc(NC(=O)C3CC(=O)N(Cc4ccc(Cl)cc4)C3)cc2)cc1)C1CC(=O)N(Cc2ccc(Cl)cc2)C1 (centres unmarked) [Example D14, N,N′-(1,2-ethynediyldi-4,1-phenylene)bis(1-(4-chlorobenzyl)-5-oxo-3-pyrrolidinecarboxamide)]
EC50 [1]: 1000 to 10000 nM

C[C@@](O)(C(=O)N1CCC[C@H]1C(=O)Nc1ccc(C#Cc2ccc(NC(=O)[C@@H]3CCCN3C(=O)[C@@](C)(O)c3ccccc3)nc2)cn1)c1ccccc1 [Example D51, (2S,2′S)-N,N′-(1,2-ethynediyldi-5,2-pyridinediyl)bis(1-((2S)-2-hydroxy-2-phenylpropanoyl)-2-pyrrolidinecarboxamide)]
EC50 [1]: < 4.57 nM

CC(=O)N1CCC[C@H]1C(=O)Nc1ccc(C#Cc2ccc(NC(=O)[C@@H]3CCCN3C(=O)c3cccc4ccccc34)nc2)cc1 [Example D59, (2S)-1-Acetyl-N-(4-((6-((((2S)-1-(1-naphthoyl)-2-pyrrolidinyl)carbonyl)amino)-3-pyridinyl)ethynyl)phenyl)-2-pyrrolidinecarboxamide]
EC50 [2]: 1480 nM

O=C(Nc1ccc(C#Cc2ccc(NC(=O)[C@@H]3CCCN3C(=O)[C@H]3CCCO3)cc2)cc1)C1CCC1 [Example D24, N-(4-((4-((cyclobutylcarbonyl)amino)phenyl)ethynyl)phenyl)-1-((2R)-tetrahydro-2-furanylcarbonyl)-L-prolinamide]
EC50 [1]: 1000 to 10000 nM

C[C@@H](C(=O)N1CCC[C@H]1C(=O)Nc1ccc(C#Cc2ccc(NC(=O)[C@@H]3CCCN3C(=O)[C@H](C)c3ccccc3)nc2)cn1)c1ccccc1 [Example D50, (2S,2′S)-N,N′-(1,2-ethynediyldi-5,2-pyridinediyl)bis(1-((2R)-2-phenylpropanoyl)-2-pyrrolidinecarboxamide)]
EC50 [1]: < 4.57 nM

CN(CC(N)=O)C(C(=O)N1CCC[C@H]1C(=O)Nc1ccc(C#Cc2ccc(NC(=O)[C@@H]3CCCN3C(=O)C(c3ccccc3)N(C)CC(N)=O)cc2)cc1)c1ccccc1 (stereo partly drawn) [VN45, (2S,2′S)-N,N′-(1,2-ethynediyldi-4,1-phenylene)bis(1-(((2-amino-2-oxoethyl)(methyl)amino)(phenyl)acetyl)-2-pyrrolidinecarboxamide)]
EC50 [1]: 4.57 to 99 nM

CC(C)C(=O)N[C@@H](C(=O)N1CCC[C@H]1C(=O)Nc1ccc(C#Cc2ccc(NC(=O)[C@@H]3CCCN3C(=O)[C@H](NC(=O)C(C)C)c3ccccc3)cc2)cc1)c1ccccc1 [VN25, (2S,2′S)-N,N′-(1,2-ethynediyldi-4,1-phenylene)bis(1-((2R)-2-(isobutyrylamino)-2-phenylacetyl)-2-pyrrolidinecarboxamide)]
EC50 [1]: < 4.57 nM

CC(C)OC(=O)N[C@@H](C(=O)N1CCC[C@H]1C(=O)Nc1ccc(C#Cc2ccc(NC(=O)[C@@H]3CCCN3C(=O)[C@H](NC(=O)OC(C)C)c3ccccc3)cc2)cc1)c1ccccc1 [VN57, Diisopropyl (1,2-ethynediylbis(4,1-phenylenecarbamoyl(2S)-2,1-pyrrolidinediyl((1R)-2-oxo-1-phenyl-2,1-ethanediyl)))biscarbamate]
EC50 [3]: < 4.57 nM

CN(C)[C@H](C(=O)N1CCC[C@H]1C(=O)Nc1ccc(C#Cc2ccc(NC(=O)[C@@H]3CCCN3C(=O)[C@H](c3ccccc3)N(C)C)cc2)cc1)c1ccccc1 [VN22, (2S,2′S)-N,N′-(1,2-ethynediyldi-4,1-phenylene)bis(1-((2S)-2-(dimethylamino)-2-phenylacetyl)-2-pyrrolidinecarboxamide)]
EC50 [1]: < 4.57 nM

CC(=O)N1CCC[C@H]1C(=O)Nc1ccc(C#Cc2ccc(NC(=O)[C@@H]3CCCN3C(=O)Cc3ccccc3)cc2)cc1 [Example D22, (2S)-1-Acetyl-N-(4-((4-((((2S)-1-(phenylacetyl)-2-pyrrolidinyl)carbonyl)amino)phenyl)ethynyl)phenyl)-2-pyrrolidinecarboxamide]
EC50 [2]: 140 nM

O=C(Nc1ccc(C#Cc2ccc(NC(=O)[C@@H]3CCCN3C(=O)c3nccn3Cc3ccccc3)cc2)cc1)[C@@H]1CCCN1C(=O)c1nccn1Cc1ccccc1 [Example D29, (2S,2′S)-N,N′-(1,2-ethynediyldi-4,1-phenylene)bis(1-((1-benzyl-1H-imidazol-2-yl)carbonyl)-2-pyrrolidinecarboxamide)]
EC50 [1]: 100 to 999 nM

O=C1CN(C(C(=O)N2CCC[C@H]2C(=O)Nc2ccc(C#Cc3ccc(NC(=O)[C@@H]4CCCN4C(=O)C(c4ccccc4)N4CCNC(=O)C4)cc3)cc2)c2ccccc2)CCN1 (single isomer, unassigned) [VN33.5]
EC50 [3]: 100 to 999 nM

O=C(Nc1ccc(C#Cc2ccc(NC(=O)[C@@H]3CCCN3C(=O)C(c3ccccc3)N3CCC(O)CC3)cc2)cc1)[C@@H]1CCCN1C(=O)C(c1ccccc1)N1CCC(O)CC1 (stereo partly drawn) [VN21, (2S,2′S)-N,N′-(1,2-ethynediyldi-4,1-phenylene)bis(1-((4-hydroxy-1-piperidinyl)(phenyl)acetyl)-2-pyrrolidinecarboxamide)]
EC50 [2]: 0.035 nM
